Values joined by “and” are separate entries in the source; they are usually repeats but may differ in a detail not shown here. Equal values may be shown once.

The values below come from patent US20120052010A1, “IMAGING TUMOR PERFUSION, OXIDATIVE […] DYNAMIC ACE PET IN PATIENTS WITH HEAD AND NECK CANCER DURING RADIOTHERAPY” (GE HEALTHCARE LIMITED, priority 2009, published 2012).

Series [1] has as its system primary tumor, squamous cell carcinoma of the head and neck. In words: Dynamic ACE PET, tumor perfusion (absolute extraction rate and relative perfusion index rF). It counts as in vivo, human. The method, then:
In a subset of ACE scan sessions (n=23) an image-derived arterial input function for absolute quantification of tumor perfusion was acquired by dynamic imaging of the heart immediately after injection of a 0.5 MBq/kg body weight ACE bolus.
(§1) Ten minutes after the heart scan, the head and neck region was imaged immediately after an intravenous bolus injection of 10 MBq/kg body weight ACE. The scan time was 32 minutes with time frames 12×5 seconds (s), 6×10 s, 4×30 s, 4×60 s, 2×120 s and […].
The arterial blood input function was derived by placing a small ROI in the left ventricular cavity of the heart scan to obtain a TAC of the first pass of the bolus. Arterial blood activities were integrated by the area-under-the-curve of the first bolus passage through the chamber and normalized to the injected dose of the subsequent tumor scan.
The peak activity of the primary tumor deposited at the end of the first bolus pass was assessed. The absolute extraction rate (in mL/min/mL tissue) was calculated by dividing the first-pass peak tumor activity by the arterial blood integral, assuming that systemic circulation was unaltered between the heart and tumor scan. As the arterial input was not obtained in all sessions, a relative perfusion index (rF) was quantified by the ratio of initial peak retention in the tumor to that of the cerebellum. […] Absolute quantification of tumor perfusion in 23 scans yielded a mean of 0.47±0.01 mL/min/mL The mean of simultaneous rF measurements was 5.87±0.39 and the two methods were linearly correlated (r=0.57, p=0.005).

Series [2] has the same test system. In words: Dynamic ACE PET, tumor clearance rate of [11C] (tumor oxidative metabolism, OXm). It counts as in vivo, human. How it is done: Twenty nine dynamic ACE PET scans were performed in the nine patients. Five patients were scanned with a dedicated PET device (Siemens ECAT HR^+, Knoxyille, Tenn., USA) and PET images were coregistered to dose-planning CT images for anatomical localization. Four patients were scanned with a hybrid PET-CT device (GE Discovery ST, Milwaukee, Wis., USA). ACE PET was studied in all patients within 7 days before the start of radiotherapy (baseline). Due to logistic problems not all patients could be scanned at all subsequent time points. Five patients were scanned after a mean dose of 15 Gy (dose range 9.6-20Gy), 7 patients after a mean dose of 30 Gy (range 24-37Gy) and 8 patients after a mean dose of 55 Gy (range 42-68Gy).
as §1
Primary tumors were clearly visualized in all scans. A time-activity curve (TAC) of the primary tumor was obtained from a region of interest (ROI) delineating the highest uptake in all ACE scans. TACs were analyzed by fitting an exponential curve to the data collected between 4 and 32 min Tumor oxidative metabolism was derived from the below equation.
where Y is the tumor radioactivity (Bq/cc), A is a constant, t is time (min), and OXm is the clearance rate of [^11C] in min^−1. The average R^2 of the fit was 0.93.

For series [3] the following is noted: resting normal volunteers, myocardial O2 consumption 3-4 micromole/min/gram; cited from earlier work.
Series [4] has as its system primary tumor, squamous cell carcinoma of the head and neck. In words: FDG-PET tumor glucose uptake (Tglu). It counts as in vivo, human. How it is done:
FDG-PET was performed at baseline using a standard clinical whole-body protocol, in which the head and neck area was scanned one hour after intravenous injection of 5 MBq/kg body weight FDG. Baseline ACE and FDG scans were performed on the same or adjacent days.
Whole-body scanning was performed one hour after intravenous injection of 5 MBq/kg body weight FDG. Six patients were examined by PET/CT and four patients were studied by PET alone. The patients were instructed to remain recumbent and avoid voicing and other uses of neck muscles during the uptake period.
Tumor glucose uptake (Tglu) was measured from the FDG data as standard uptake values (SUV), determined by the radioactivity concentration of the tumor ROI, divided by injected activity per gram body weight.

As to `C[11C](=O)O` [ACE, 1-[^11C]-Acetate], the “mean of simultaneous rF measurements” value in series [1] (23 scans with absolute quantification) amounted to 5.87±0.39. Moreover, the “absolute quantification of tumor perfusion (absolute ACE extraction rate), mean” value in series [1] (23 scans, arterial input from left ventricular blood pool imaging) is 0.47 mL/min/mL and 0.47±0.01 mL/min/mL. The “rF, Mean ± SE” value in series [1] (CR group, 15 Gy) was 7.87; in series [1] (CR group, 30 Gy), 7.29; in series [1] (CR group, 55 Gy), 5.00; in series [1] (CR group, Baseline) it was 5.68; in series [1] (PR group, 30 Gy), 6.61; in series [1] (PR group, 55 Gy), 4.51. For the same compound, the “rF, Mean ± SE” value in series [1] (PR group, Baseline) turned out to be 6.42. For the same compound, in series [1] (all patients), the “extraction rate in cerebellum (reference region)” value was 0.08±0.03 mL/min/mL. For the same compound, the “primary tumor rF (relative perfusion)” value in series [1] (individual patients (CR and PR), 15 Gy) was 6.93 and 5.00 and 8.22 and 7.07 and 9.25; in series [1] (individual patients (CR and PR), 30 Gy), 8.51 and 7.39 and 8.48 and 3.95 and 8.06 and 6.54 and 6.05; in series [1] (individual patients (CR and PR), 55 Gy), 5.78 and 5.00 and 6.34 and 2.20 and 2.81 and 7.76 and 3.64. Also, in series [1] (individual patients (CR and PR), Baseline), the “primary tumor rF (relative perfusion, tumor/cerebellum initial peak retention)” value is 4.10 and 7.63 and 6.47 and 5.17 and 6.26 and 4.90 and 3.96 and 5.91 and 8.93. In addition, the “OXm, Mean ± SE” value was determined as 0.0142 min⁻¹ in series [2] (CR group, 15 Gy, N=4); 0.0144 min⁻¹ in series [2] (CR group, 30 Gy, N=4); 0.0140 min⁻¹ in series [2] (CR group, 55 Gy, N=5); 0.0122 min⁻¹ in series [2] (CR group, Baseline, N=6); 0.0126 min⁻¹ in series [2] (PR group, 30 Gy, N=3); 0.0110 min⁻¹ in series [2] (PR group, 55 Gy, N=3). Moreover, in series [2] (PR group, Baseline, N=3), the “OXm, Mean ± SE” value was 0.0065 min⁻¹. The “OXm values in myocardium” value in series [3] was 0.05 to 0.07 min⁻¹.
For the compound `OC[C@H]1OC(O)[C@H]([18F])[C@@H](O)[C@@H]1O` (stereo partly drawn) [FDG, ^18F-fluoro-2-deoxy-D-glucose], the “Tglu (tumor glucose uptake, standard uptake value)” value in series [4] (individual patients, baseline FDG-PET, one hour after i.v. 5 MBq/kg FDG) was 4.6 SUV and 13.4 SUV and 8.5 SUV and 6.8 SUV and 4.9 SUV and 16.3 SUV and 13.8 SUV and 3.9 SUV and 26.1 SUV. The “Tglu, all primary tumors” value in series [4] (nine patients, baseline) is 10.9±2.4 SUV.
